Results taken from ChEMBL document CHEMBL1201862, “PubChem BioAssay data set” (2004).
Structures can show the parent of a compound that is named as a salt. Active and inactive are the calls of the source.

What was measured:
BJ [1] = test: BJ-TERT fibroblast viability loss – cell-based, RAS-independent, luminescence, dose response (AID 1933); type: functional; conditions: Homo sapiens
BJ [2] = test: cells; type: functional, cell-based; conditions: Homo sapiens
BJ [3] = test: BJ-TERT-LT-ST fibroblast viability loss – cell-based, RAS-independent, luminescence, dose response (AID 1935); type: functional; conditions: Homo sapiens;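 also: BJ fibroblasts immortalized with TERT plus LT and ST oncogenes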
[4] = DRD fibroblast viability loss – cell-based, non-viral oncogenic, luminescence, dose response (AID 1934); type: functional; conditions: Homo sapiens
P388/ADR = test: cells; type: functional; conditions: Mus musculus
SN12K1 = test: cells; type: functional; conditions: Homo sapiens
P388 = test: cells; type: functional; conditions: Mus musculus
[5] = blockers of HIV-1 envelope-mediated cell-cell fusion – cherry-pick, dose response (AID 652057); type: functional, cell-based
[6] = HIV-1 AD8 envelope cell-cell fusion blockers – cherry-pick, dose response (AID 652062); type: functional, cell-based;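 also: luciferase signal from cell-cell fusion driven by HIV-1 clade B AD8 Env; potency is for inhibitors of fusion seen as a drop in luminescence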
Fatty acid synthase [7] = molecular target: T1, Fatty acid synthase (Homo sapiens, UniProt P49327); test: inhibition of human FAS-TE enzyme activity – biochemical, endpoint fluorescence intensity, uHTS hits, dose response (AID 624327); type: functional;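 also: fluorescence from hydrolysis of an O-methyl fluorescein acyl ester substrate by the enzyme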
Fatty acid synthase [8] = molecular target: T1, Fatty acid synthase; test: inhibition of human FAS-TE enzyme activity – biochemical, kinetic fluorescence intensity, dose response (AID 624326); type: functional;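 also: rate of fluorescence rise from hydrolysis of a fluorogenic O-methyl fluorescein ester substrate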
[9] = NIH-3T3 fibroblast cytotoxicity, dose response, cytotoxicity control, cell-based, fluorescence, Alamar Blue, secondary assay (AID 2327); type: functional;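 also: NIH-3T3 mouse fibroblasts cultured with fluconazole at 8 µg/mL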
[10] = fluconazole-exposed Candida albicans growth modulators – fluorescence, retest, confirmation (AID 2467); type: functional, cell-based
[11] = molecular target: T2, Replicative DNA helicase DnaB (Mycobacterium tuberculosis, UniProt P9WMR3); test: DnaB intein splicing inhibitors, dose response, biochemical, cell-free fluorescence (AID 449749); type: functional
T2 sequence (P9WMR3 whole entry): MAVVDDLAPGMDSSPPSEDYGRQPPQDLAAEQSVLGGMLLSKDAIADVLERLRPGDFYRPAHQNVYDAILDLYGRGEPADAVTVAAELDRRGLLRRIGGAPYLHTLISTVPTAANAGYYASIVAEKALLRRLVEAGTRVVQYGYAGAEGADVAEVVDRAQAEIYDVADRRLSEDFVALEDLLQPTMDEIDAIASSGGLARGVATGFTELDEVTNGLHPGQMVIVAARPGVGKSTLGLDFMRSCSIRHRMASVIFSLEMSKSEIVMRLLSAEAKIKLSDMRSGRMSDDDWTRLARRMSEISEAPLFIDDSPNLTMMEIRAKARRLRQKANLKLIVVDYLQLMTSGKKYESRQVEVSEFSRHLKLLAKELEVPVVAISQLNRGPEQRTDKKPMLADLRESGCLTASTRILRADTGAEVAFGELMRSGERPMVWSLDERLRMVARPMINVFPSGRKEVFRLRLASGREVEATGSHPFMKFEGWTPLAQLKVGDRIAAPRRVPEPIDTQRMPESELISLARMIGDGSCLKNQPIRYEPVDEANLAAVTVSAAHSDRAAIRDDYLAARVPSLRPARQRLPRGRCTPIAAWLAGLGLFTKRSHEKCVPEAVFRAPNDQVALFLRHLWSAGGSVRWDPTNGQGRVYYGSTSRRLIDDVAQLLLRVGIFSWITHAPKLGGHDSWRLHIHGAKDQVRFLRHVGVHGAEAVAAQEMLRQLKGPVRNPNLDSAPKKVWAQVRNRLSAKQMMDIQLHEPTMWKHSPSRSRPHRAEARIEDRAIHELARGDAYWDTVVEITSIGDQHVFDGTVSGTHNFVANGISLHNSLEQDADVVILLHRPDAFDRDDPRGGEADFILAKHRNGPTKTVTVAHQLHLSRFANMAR

Protein RecA = molecular target: T3, Protein RecA (Mycobacterium tuberculosis, UniProt P9WHJ3); test: Fluorescence Cell-Free Homogeneous Dose Retest to Identify Inhibitors of RecA-Intein Splicing Activity. [Related pubchem assays (depositor defined):AID2097, AID2223, AID489010, AID492950]; type: functional
T3 sequence (P9WHJ3 whole entry): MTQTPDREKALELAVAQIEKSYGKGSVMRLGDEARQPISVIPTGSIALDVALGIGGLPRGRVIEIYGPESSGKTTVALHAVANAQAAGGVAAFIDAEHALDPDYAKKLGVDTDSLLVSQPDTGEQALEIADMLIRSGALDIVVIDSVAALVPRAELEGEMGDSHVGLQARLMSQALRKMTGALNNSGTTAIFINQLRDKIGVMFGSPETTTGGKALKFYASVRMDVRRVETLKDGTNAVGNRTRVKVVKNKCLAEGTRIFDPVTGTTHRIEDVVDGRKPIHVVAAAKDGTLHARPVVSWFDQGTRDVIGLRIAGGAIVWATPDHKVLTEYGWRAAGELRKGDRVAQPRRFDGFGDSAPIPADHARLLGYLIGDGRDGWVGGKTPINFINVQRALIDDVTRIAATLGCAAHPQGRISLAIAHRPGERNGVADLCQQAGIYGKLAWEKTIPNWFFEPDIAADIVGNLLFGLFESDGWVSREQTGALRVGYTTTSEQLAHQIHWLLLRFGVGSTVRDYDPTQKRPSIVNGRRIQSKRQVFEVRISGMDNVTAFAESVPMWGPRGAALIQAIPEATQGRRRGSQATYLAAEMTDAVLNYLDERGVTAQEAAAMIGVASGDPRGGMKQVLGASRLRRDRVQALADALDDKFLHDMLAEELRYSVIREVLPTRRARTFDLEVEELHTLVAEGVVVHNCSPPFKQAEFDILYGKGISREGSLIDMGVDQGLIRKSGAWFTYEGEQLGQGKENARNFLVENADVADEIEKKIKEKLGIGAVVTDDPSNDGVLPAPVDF

T1 sequence (P49327 whole entry): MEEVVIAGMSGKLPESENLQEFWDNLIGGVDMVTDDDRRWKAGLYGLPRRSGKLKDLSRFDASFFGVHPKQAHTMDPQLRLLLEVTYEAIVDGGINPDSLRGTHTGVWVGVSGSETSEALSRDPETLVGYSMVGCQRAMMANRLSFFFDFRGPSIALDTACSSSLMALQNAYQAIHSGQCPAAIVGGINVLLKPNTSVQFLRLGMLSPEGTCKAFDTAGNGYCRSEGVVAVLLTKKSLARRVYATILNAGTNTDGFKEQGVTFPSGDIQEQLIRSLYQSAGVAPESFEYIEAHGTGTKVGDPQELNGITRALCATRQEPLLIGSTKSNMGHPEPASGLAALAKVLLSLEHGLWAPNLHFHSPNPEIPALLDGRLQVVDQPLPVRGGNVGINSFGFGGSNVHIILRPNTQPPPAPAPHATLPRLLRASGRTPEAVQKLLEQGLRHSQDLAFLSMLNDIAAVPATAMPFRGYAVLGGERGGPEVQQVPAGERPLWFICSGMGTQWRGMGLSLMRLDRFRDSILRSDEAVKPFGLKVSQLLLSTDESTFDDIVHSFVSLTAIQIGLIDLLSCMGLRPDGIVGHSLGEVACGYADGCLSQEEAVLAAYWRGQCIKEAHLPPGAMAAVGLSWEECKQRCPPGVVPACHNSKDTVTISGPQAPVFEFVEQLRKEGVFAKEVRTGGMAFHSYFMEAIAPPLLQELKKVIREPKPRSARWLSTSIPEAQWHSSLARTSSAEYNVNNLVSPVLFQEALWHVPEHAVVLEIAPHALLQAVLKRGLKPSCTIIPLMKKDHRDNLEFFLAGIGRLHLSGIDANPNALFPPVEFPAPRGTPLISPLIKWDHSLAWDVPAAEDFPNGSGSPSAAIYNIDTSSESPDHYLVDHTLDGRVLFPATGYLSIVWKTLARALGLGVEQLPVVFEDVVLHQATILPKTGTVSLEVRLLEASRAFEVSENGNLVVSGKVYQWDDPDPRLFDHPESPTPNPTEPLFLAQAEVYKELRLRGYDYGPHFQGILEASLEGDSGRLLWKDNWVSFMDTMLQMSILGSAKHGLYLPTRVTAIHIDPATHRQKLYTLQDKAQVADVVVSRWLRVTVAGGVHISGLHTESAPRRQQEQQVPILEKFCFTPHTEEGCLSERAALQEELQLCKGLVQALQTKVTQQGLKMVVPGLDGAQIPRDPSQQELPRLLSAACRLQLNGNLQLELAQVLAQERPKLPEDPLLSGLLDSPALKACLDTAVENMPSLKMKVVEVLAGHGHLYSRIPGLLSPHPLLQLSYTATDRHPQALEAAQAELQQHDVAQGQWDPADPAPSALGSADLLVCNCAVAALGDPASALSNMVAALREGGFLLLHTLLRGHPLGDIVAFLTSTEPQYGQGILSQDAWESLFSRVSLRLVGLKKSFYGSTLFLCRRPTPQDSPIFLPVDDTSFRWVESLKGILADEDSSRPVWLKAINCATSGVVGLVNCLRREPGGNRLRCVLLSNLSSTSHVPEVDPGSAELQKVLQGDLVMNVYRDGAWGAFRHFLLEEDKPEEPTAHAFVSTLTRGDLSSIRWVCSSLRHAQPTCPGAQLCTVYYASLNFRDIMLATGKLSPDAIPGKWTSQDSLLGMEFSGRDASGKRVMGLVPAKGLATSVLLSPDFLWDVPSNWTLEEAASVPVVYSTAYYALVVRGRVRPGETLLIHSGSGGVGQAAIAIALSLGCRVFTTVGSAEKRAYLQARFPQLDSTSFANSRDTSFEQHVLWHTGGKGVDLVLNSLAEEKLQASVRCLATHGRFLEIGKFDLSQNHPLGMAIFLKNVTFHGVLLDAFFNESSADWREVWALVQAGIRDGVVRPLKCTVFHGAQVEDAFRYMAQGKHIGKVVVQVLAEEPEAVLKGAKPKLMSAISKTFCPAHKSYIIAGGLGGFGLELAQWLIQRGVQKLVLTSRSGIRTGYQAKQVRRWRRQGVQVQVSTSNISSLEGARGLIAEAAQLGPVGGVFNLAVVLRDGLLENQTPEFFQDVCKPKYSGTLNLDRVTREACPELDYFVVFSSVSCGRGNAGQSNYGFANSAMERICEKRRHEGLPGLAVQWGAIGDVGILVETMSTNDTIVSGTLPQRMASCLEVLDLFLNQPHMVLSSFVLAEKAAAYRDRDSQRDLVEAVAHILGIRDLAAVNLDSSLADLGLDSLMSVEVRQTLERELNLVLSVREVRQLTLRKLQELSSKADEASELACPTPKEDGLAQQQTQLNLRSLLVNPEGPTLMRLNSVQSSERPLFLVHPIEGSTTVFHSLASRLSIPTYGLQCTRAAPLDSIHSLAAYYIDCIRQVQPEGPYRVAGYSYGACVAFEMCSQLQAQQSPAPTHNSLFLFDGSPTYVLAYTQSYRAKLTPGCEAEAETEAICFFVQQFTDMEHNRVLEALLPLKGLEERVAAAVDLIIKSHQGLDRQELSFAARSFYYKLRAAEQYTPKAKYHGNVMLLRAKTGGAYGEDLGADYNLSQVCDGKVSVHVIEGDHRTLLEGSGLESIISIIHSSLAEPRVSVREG

In the case of Oc1c(Cl)cc(CN2CCCCC2)c2cccnc12, the EC50 (BJ [1]) is reported as 1.39 µM (active), the EC50 (BJ [2]) is reported as 25.9 µM (inconclusive) and the EC50 (BJ [3]) is reported as 76.1 µM (inconclusive). The EC50 [4] was 53.1 µM (inconclusive).
For COc1cc(/C=C/c2ccc(OC)c(OC)c2)oc(=O)c1, the GI50 (P388/ADR) was > 183 µM (inactive), the GI50 (SN12K1) was > 183 µM (inactive) and the GI50 (P388) was 96.4 µM (inactive).
In the case of O=NN(CCCl)C(=O)N[C@H]1CC[C@@H](O)CC1, the GI50 (P388/ADR) is reported as 3.41 µM (inactive), the GI50 (SN12K1) is reported as 28.2 µM (inactive) and the GI50 (P388) is reported as 3.76 µM (inactive).
For CC(C)NC(=O)OCc1c(CO)c2c(n1C)-c1ccccc1CC2, the GI50 (P388/ADR) was 6.9 µM (inactive), the GI50 (SN12K1) was 18.1 µM (inactive) and the GI50 (P388) was 7.59 µM (inactive).
In the case of Cc1ccc(C2COc3cc(O)c(O)cc3C2)cc1 (stereo unspecified), the GI50 (P388/ADR) is reported as 1.79 µM (inactive), the GI50 (SN12K1) is reported as 13.2 µM (inactive) and the GI50 (P388) is reported as 1.75 µM (inactive).
With O=C(C[C@H]1C=C[C@@H](NC(=O)Nc2ccccc2F)[C@@H](CO)O1)NCc1ccc(Cl)cc1 the AC50 [5] was 3.07 µM (active) and the AC50 [6] was 9.13 µM (active).
In the case of CCN1CCCC(NCc2c3ccccc3c(CNC3CCCN(CC)C3)c3ccccc23)C1 (stereo unspecified), the GI50 (P388/ADR) is reported as 15.7 µM (inactive), the GI50 (SN12K1) is reported as 8.32 µM (inactive) and the GI50 (P388) is reported as 2.64 µM (inactive).
In the case of CN1CCN(c2ccc([N+](=O)[O-])cc2/C=N/NC(=O)c2ccc(F)cc2)CC1, the IC50 (Fatty acid synthase [7]) is reported as 11.2 µM (active) and the IC50 (Fatty acid synthase [8]) is reported as 16 µM (active).
With O=c1[nH]cc(/N=C/c2cc([N+](=O)[O-])ccc2O)c(=O)[nH]1 the EC50 [9] was > 150 µM (inactive), the EC50 [10] was > 38 µM (not active) and the AC50 [11] was 5.98 µM (active). For the same compound, the EC50 (Protein RecA) was 5.48 µM (active).
With CCCCS(=N)(=O)CC[C@H](N)C(=O)O (stereo partly specified) [BUTHIONINE SULFOXIME] the GI50 (P388/ADR) was > 5000 µM (inactive), the GI50 (SN12K1) was 3720 µM (inactive) and the GI50 (P388) was 2250 µM (inactive).
In the case of CCCCCCCCCCCCCCCCSCC(COC)COP(=O)([O-])OCC[N+](C)(C)C (stereo unspecified) [ILMOFOSINE], the GI50 (P388/ADR) is reported as 4.01 µM (inactive), the GI50 (SN12K1) is reported as 11.7 µM (inactive) and the GI50 (P388) is reported as 2.36 µM (inactive).
For N[C@@H](Cc1ccc(N(CCCl)CCCl)cc1)C(=O)O [MELPHALAN HYDROCHLORIDE], the GI50 (P388/ADR) was 5.71 µM (inactive), the GI50 (SN12K1) was 26.5 µM (inactive) and the GI50 (P388) was 2.39 µM (inactive).
